Measurements published in article PMC6429309 (Molecules, 2019).
In brackets after ≈: the same amount, converted by molar mass. Several values for one entry are separate records, joined by “and”; a condition that tells them apart may be missing. Equal entries are not always repeated.

Tests used:
[1] = test system: Xanthomonas oryzae pv. oryzae (Xoo); assay: microbe, parasite or virus in culture; assay type: cell-based; conditions: for inhibition at 50 µg/mL / inhibition at 100 µg/mL / EC50: Xanthomonas oryzae; for inhibition at 50 µg/mL / inhibition at 100 µg/mL: read-out: Antibacterial activity (inhibition rate) against Xoo; for EC50: read-out: EC50 against Xoo; for Antibacterial activity (inhibition rate) against Xoo / EC50 against Xoo: in vitro; for Antibacterial activity (inhibition rate) against Xoo: strain PXO99A, average of three replicates; for EC50 against Xoo: five concentrations 100-6.25 μg/mL
[2] = test system: Xanthomonas axonopodis pv. citri (Xac); assay: microbe, parasite or virus in culture; assay type: cell-based; conditions: for inhibition at 50 µg/mL / inhibition at 100 µg/mL / EC50: Xanthomonas axonopodis; for inhibition at 50 µg/mL / inhibition at 100 µg/mL: read-out: Antibacterial activity (inhibition rate) against Xac; for EC50: read-out: EC50 against Xac

Compound	inhibition at 50 µg/mL [1] [%]	inhibition at 100 µg/mL [1] [%]	EC50 [1] [µg/mL]	inhibition at 50 µg/mL [2] [%]	inhibition at 100 µg/mL [2] [%]	EC50 [2] [µg/mL]	Antibacterial activity (inhibition rate) against Xoo ([1]; 50 μg/mL) [%]	Antibacterial activity (inhibition rate) against Xoo ([1]; 100 μg/mL) [%]	EC50 against Xoo [1] [µg/mL]	Antibacterial activity (inhibition rate) against Xac [2]	EC50 against Xac [2] [µg/mL]
COP(=O)(OC)Oc1ccccc1/C=C/C(=O)/C=C/c1ccc(Cl)cc1 [3a, 2-((1E,4E)-5-(4-chlorophenyl)-3-oxopenta-1,4-dien-1-yl)phenyl dimethyl phosphate]	83.9 ± 2.1	85 ± 2.1	35.8	50.6 ± 4.6	59.7 ± 1.8	45					
CCOP(=O)(OCC)Oc1ccccc1/C=C/C(=O)/C=C/c1ccc(Cl)cc1 [3b]	35 ± 4.4	37 ± 2.9		53 ± 3.6	53.1 ± 3.2	34.1 (≈ 81 µM)					
COc1ccc(/C=C/C(=O)/C=C/c2ccccc2OP(=O)(OC)OC)cc1 [3c]	23.4 ± 0.9	25.5 ± 0.9		53.5 ± 2.5	57.5 ± 2.1						
CCOP(=O)(OCC)Oc1ccccc1/C=C/C(=O)/C=C/c1ccc(OC)cc1 [3d]	32.6 ± 2.2	35.7 ± 1.1		34.9 ± 1.5	46.4 ± 1.1						
COP(=O)(OC)Oc1ccccc1/C=C/C(=O)/C=C/c1ccccc1Cl [3e]	65.3 ± 1.9	69.4 ± 0.6	46 (≈ 117 µM)	67.9 ± 4.3	77.6 ± 2.8	22.9 (≈ 58.3 µM)					
CCOP(=O)(OCC)Oc1ccccc1/C=C/C(=O)/C=C/c1ccccc1Cl [3f]	35.7 ± 3.4	36.4 ± 3.1		52.9 ± 2.1	53.1 ± 2.1						
CCOP(=O)(OCC)Oc1ccccc1/C=C/C(=O)/C=C/c1cccc([N+](=O)[O-])c1 [3h]	78.1 ± 1.4	86.5 ± 1.9	19.1 (≈ 44.3 µM)	48.5 ± 4.2	54.8 ± 3.8						
COP(=O)(OC)Oc1ccccc1/C=C/C(=O)/C=C/c1ccc([N+](=O)[O-])cc1 [3i]	43.9	56.6 ± 1.3		50.8 ± 4.2	50.9 ± 4.5						
CCOP(=O)(OCC)Oc1ccccc1/C=C/C(=O)/C=C/c1ccc([N+](=O)[O-])cc1 [3j]	81.4 ± 0.9	85.5 ± 0.8	17.7 (≈ 41 µM)	52.9 ± 5.4	61.9 ± 1.1						
CCOP(=O)(OCC)Oc1ccccc1/C=C/C(=O)/C=C/c1ccc(C)cc1 [3k]	39.4 ± 0.4	41.5 ± 0.6		47.7 ± 3.1	52.6 ± 2.9						
COP(=O)(OC)Oc1ccccc1/C=C/C(=O)/C=C/c1ccccc1 [3l]	16.7 ± 5.3	35.9 ± 2.9		29.2 ± 4.3	49.4 ± 8						
CCOP(=O)(OCC)Oc1ccccc1/C=C/C(=O)/C=C/c1ccccc1 [3m]	2.5 ± 5.7	28.7 ± 9.1		18 ± 2.9	27.4 ± 0.6						
COP(=O)(OC)Oc1ccccc1/C=C/C(=O)/C=C/c1ccc(Br)cc1 [3n]	18.8 ± 1.1	23.8 ± 5.3		2.5 ± 0.9	16.1 ± 3.8						
CCOP(=O)(OCC)Oc1ccccc1/C=C/C(=O)/C=C/c1ccc(Br)cc1 [3o]	19.9 ± 3.7	31.4 ± 2.2		23 ± 2.7	28.4 ± 3.4						
COP(=O)(OC)Oc1ccccc1/C=C/C(=O)/C=C/c1cccc(C(F)(F)F)c1 [3p]	21.8 ± 1.5	25 ± 3.1		11.5 ± 1.8	20.2 ± 0.8						
CCOP(=O)(OCC)Oc1ccccc1/C=C/C(=O)/C=C/c1cccc(C(F)(F)F)c1 [3q]	20.3 ± 3.1	31.5 ± 2.1		5.4 ± 2.6	25.4 ± 0.5						
COP(=O)(OC)Oc1ccccc1/C=C/C(=O)/C=C/c1cccc(C)c1 [3r]	21 ± 2.2	42.4 ± 1.4		10.3 ± 2.5	20.5 ± 1.2						
CCOP(=O)(OCC)Oc1ccccc1/C=C/C(=O)/C=C/c1cccc(C)c1 [3s]	12.5 ± 6	29.5 ± 4.8		8.5 ± 3.8	27.4 ± 1.7						
S=c1[nH]nc(NCNc2n[nH]c(=S)s2)s1 [Bismerthiazol, bismerthiazol, reference compound]							45.2 ± 2.0	64.9 ± 3.9	58.8 (≈ 211 µM)	70.3±2.8% and 54.9 ± 5.5%	44.5 (≈ 160 µM)
Nc1nnc([S-])s1.Nc1nnc([S-])s1.[Cu+2] [Thiodiazole-copper, thiodiazole-copper, reference compound]							37.2 ± 3.2	50.2 ± 0.9	78.7		87.9
